Assays:
Type in all cases: cell-based
[1] = tested on: human insulin C-peptide; assay: Content of human insulin C-peptide by ELISA in cell fractions; details: EDTA added during re-aggregation (Table 2, Expt 3)
Description: On day 20, the medium used in step III of Example 2 was modified to adjust the glucose concentration to 5.5 mM (referred to herein as DM7). For isolation of EpCAM^+ cells by magnetic cell sorting (MACS technology, Miltenyi Biotec), a 10 cm-diameter plate was washed with PBS^−/− (no Ca^++, no Mg^++). Cells were then dissociated by treatment with Accutase (Stempro, 2.5 ml/10 cm plate), for 10 minutes at 37° C., and pipetting up and down. The cells were collected in DM7 and an aliquot counted in a NucleoCounter (New Brunswick). Cells were centrifuged at 1,500 rpm (350×g) for 5 minutes and re-suspended in MACS buffer (PBS^−/− with 0.5% BSA, 2 mM EDTA), using 0.3 ml for 50 million cells. Magnetic beads conjugated to anti-EpCAM antibodies (Miltenyi Biotec—CD326 pluripotent stem cells microbeads) were added (0.1 ml beads for 50 million cells). After 30 minutes at 4° C., the cells were washed once in 50 ml of MACS buffer, centrifuged, and finally re-suspended in 0.5 ml MACS buffer (for a maximum of 10^8 cells). […]
Aliquots of the Presort culture and of EpCAM-MACS-separated fractions (from step 7), as well as of re-aggregated clusters (step 8) were analyzed. The number of cells was counted, using the Nucleocounter. […] Human insulin mRNA was quantitated by RT-qPCR (Taq-Man, Applied Biosystems, Step One) using the TATA binding protein (TBP) gene as reference. […]

[2] = tested on: Human insulin mRNA; assay: Human insulin mRNA by RT-qPCR with TBP as reference; details: EDTA added during the re-aggregation step
Description: Aliquots of the Presort culture and of EpCAM-MACS-separated fractions (from step 7), as well as of re-aggregated clusters (step 8) were analyzed. The number of cells was counted, using the Nucleocounter. After centrifugation at 350×g for 5 minutes, cell pellets were dissolved in M-PER (Mammalian protein extraction reagent, Pierce), typically using 0.1 ml M-PER for 2 million cells, and content of human insulin C-peptide was measured with an ELISA kit (Mercodia, Upsalh, Sweden, ultrasensitive c-peptide kit (minimal detection 5 pM) or Mercodia c-peptide ELISA (minimal detection 90 pM). Samples in M-PER were diluted 3 fold, or more in the kit buffer, and 20 μl of the ⅓ dilution were assayed. Results were expressed per mg total protein (as measured by Bradford assay) and per million cells (counted in a NucleoCounter). Other cell pellets were suspended in 0.7 ml buffer RLT (RNAeasy, Qiagen) per million cells, for RNA extraction. Human insulin mRNA was quantitated by RT-qPCR (Taq-Man, Applied Biosystems, Step One) using the TATA binding protein (TBP) gene as reference. In the same way, proteins and RNA were extracted from entire plates after scraping the cells with a rubber policeman. […]

[3] = tested on: human ES cells; assay: Immunofluorescence for Pdx1 positive cells during differentiation
Description: On day 6, cells were washed with DMEM/F12, 2 mM glutamine, 1×PS, and medium changed to differentiation medium B1 (DMEM/F12, 2 mM glutamax (Invitrogen), 2 mg/ml BSA, 1% B27 supplement (In Vitrogen) 50 ng/ml human recombinant FGF10 (Preprotech), and 10 μM Forskolin (F-6886 from coleus forskohlii (SIGMA)). The cells were left two days in the same medium.
On day 8, the medium was changed to differentiation medium B2 i.e. medium B1 with addition of 2 μM fresh ATRA (All trans retinoic acid) for five days. Medium was changed every two days.
(§1) On day 13, medium was changed to DMEM/F12, Glutamine 2 mM, PS, 1×ITS supplement (Invitrogen), 2 mg/ml BSA, 5 μg/ml bovine fibronectin (Biological Industries Bet Ha'emek,), Nicotinamide 10 mM (SIGMA) and exendin-4, 5-50 ng/ml. Medium was changed every two days. Cells positive for C-peptide staining start to appear around day 19 of differentiation, but strong immunostaining for C-peptide appears at day 23 and positive islet like structures continue to form till day 50 and persist for at least 70 days. When the cells have differentiated more than 15-20 days, they can be further trypsinized and replated. On the second plating, islet-like structures appear 20-30 days after replating.
Performed as in Example 1. Goat polyclonal anti-human Pdx1/IPF1 (R&D) antibody at 1:100 for 2 hrs, (blocking at 5% BSA in PBS with Triton 0.1%) was used. […]

[4] = tested on: human ES cells; assay: Immunostaining for C-peptide and glucagon in islet-like structures
Description: as §1
Cultures obtained as in Examples 1 and 2 were further cultured in ITS medium (as detailed in step III of Example 2) and were stained using polyclonal rabbit antibody to C-peptide (Acris) or monoclonal antibody (MAB 1975, Abcam) at dilution 1:200 overnight. To detect glucagon-produing cells, the cultures were also stained with goat polyclonal antibody against Glucagon (Santa Cruz N-17) at the concentration of 1:200 over night. The glucose transporter Glut2 was detected with mouse monoclonal Anti Glut-2 antibodies (R&D systems) used at the concentration of 1:200. […]

Molecule: O=C(O)CN(CCN(CC(=O)O)CC(=O)O)CC(=O)O [EDTA, reference compound]
- effect on C-peptide content of re-aggregated cells [1]: further increase
- effect on enrichment of insulin mRNA [2]: increased

Molecule: CC1=C(/C=C/C(C)=C/C=C/C(C)=C/C(=O)O)C(C)(C)CCC1 [retinoic acid, All trans retinoic acid]
- cultured cells expressing Pdx1 ([3]; day 14, two days after end of retinoic acid treatment (2 μM ATRA with FGF10 and forskolin)): about 50%

Molecule: exendin-4: maturation factor added to ITS medium at 5-50 ng/ml
- total amount of cells positive for C-peptide versus control without exendin-4 ([4]; 5 ng/ml, after 60 days of differentiation (FIGS. 9A-B)): sufficient to increase
- number of C-peptide/glucagon positive areas, 50 ng/ml relative to 5 ng/ml ([4]; day 60 (not shown)): 3 time more
- effect on the percentage of Pdx1 positive cells ([3]; 5-50 ng/ml, with nicotinamide, cell counting (data not shown)): positive effect

Source: patent publication US9404087B2, “Insulin producing cells derived from pluripotent stem cells” (Kadimastem Ltd., priority 2010, dated 2016)
